Test systems include ACHN renal; HOP-62 NSCLC; HOP-92 NSCLC; IGROV1 ovarian; NCI-H460 lung; NCI-H522 lung; OVCAR-4 ovarian; OVCAR-5 ovarian; OVCAR-8 ovarian; RXF 393 renal; SF-268 CNS; SF-539 CNS; SK-MEL-2 melanoma; SK-OV-3 ovarian; SN12C renal; SNB-75 CNS; UACC-257 melanoma; DU-145 prostate; MCF7 breast; OVCAR-3 ovarian.
Assay in all cases: inhibition of tumour cell growth, NCI panel, 48 h

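Interpolation was linear, between the two tested concentrations surrounding the appropriate level; five concentrations were tested over 48 hours in 96-well plates. At the TGI there is no net growth.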 Bounds are passed on as bounds.

Turning to `COc1ccccc1NC(=O)C(=O)C(C(=O)c1ccccc1F)C1OC(=O)c2ccccc21` (configuration not stated), the TGI in the assay on ACHN renal was greater than 100 µM; with HOP-62 NSCLC it was greater than 100 µM; in the assay with HOP-92 NSCLC, greater than 100 µM; in the assay on IGROV1 ovarian, greater than 100 µM; with NCI-H460 lung it was 74.7 µM; in the assay on NCI-H522 lung, 35.7 µM. In addition, the TGI was greater than 100 µM in the assay on OVCAR-4 ovarian; greater than 100 µM with OVCAR-5 ovarian; 47.2 µM in the assay on OVCAR-8 ovarian; 68.4 µM with RXF 393 renal; greater than 100 µM with SF-268 CNS; 66.1 µM with SF-539 CNS. In addition, the TGI in the assay on SK-MEL-2 melanoma was greater than 100 µM; in the assay with SK-OV-3 ovarian, 99.7 µM; in the assay with SN12C renal, 87.2 µM; in the assay with SNB-75 CNS, 62.8 µM; with UACC-257 melanoma it was greater than 100 µM.

Consider `COc1nc(Cl)nc(N[C@H](C)c2c3ccccc3cc3ccccc23)n1`, for which the TGI in the assay on ACHN renal was 31.7 µM; in the assay with DU-145 prostate, 25 µM; with HOP-62 NSCLC it was 31.5 µM; in the assay with HOP-92 NSCLC, 46.4 µM; in the assay on IGROV1 ovarian, 20.5 µM; in the assay with MCF7 breast, 29.2 µM. Besides, the TGI with NCI-H460 lung worked out at 33.9 µM; in the assay on NCI-H522 lung, 21.3 µM; with OVCAR-3 ovarian, 23.5 µM; in the assay on OVCAR-4 ovarian it was 13.7 µM; in the assay on OVCAR-5 ovarian it was 31.1 µM; with OVCAR-8 ovarian, 28.4 µM. Also, the TGI in the assay on RXF 393 renal turned out to be 25.9 µM; in the assay on SF-268 CNS it was 39.7 µM; with SF-539 CNS, 33.8 µM; in the assay on SK-MEL-2 melanoma it was 31.6 µM; in the assay on SK-OV-3 ovarian, 29.3 µM; in the assay with SN12C renal, 17.8 µM. Besides, the figures for the TGI with SNB-75 CNS and in the assay with UACC-257 melanoma were 76.4 µM and 30.2 µM, respectively.

Turning to `CCOc1ccc2nc(NC(=O)C(=O)C(C(=O)c3ccccc3F)C3OC(=O)c4ccccc43)sc2c1` (configuration not stated), the TGI in the assay with ACHN renal was greater than 100 µM; in the assay with HOP-62 NSCLC it was greater than 100 µM; in the assay with IGROV1 ovarian, 83.2 µM; with NCI-H460 lung, 39.5 µM; with NCI-H522 lung, 27.8 µM; in the assay with OVCAR-4 ovarian it was 77.6 µM. In addition, the TGI came to 32.8 µM with OVCAR-8 ovarian; 38.3 µM in the assay with RXF 393 renal; 82 µM with SF-268 CNS; 52.4 µM in the assay on SF-539 CNS; 39.1 µM in the assay with SK-MEL-2 melanoma; 55.1 µM in the assay on SK-OV-3 ovarian. Also, the TGI in the assay on SN12C renal was 54.1 µM; in the assay on SNB-75 CNS it was 46.4 µM; in the assay on UACC-257 melanoma it was greater than 100 µM.

Regarding `C[C@H]1S[C@@H](c2ccc(Cl)cc2Cl)N(NC(=O)c2ccncc2)C1=O`, the TGI in the assay on DU-145 prostate, in the assay with HOP-62 NSCLC, in the assay on HOP-92 NSCLC, in the assay on IGROV1 ovarian, in the assay on MCF7 breast and with NCI-H460 lung was greater than 100 µM each time. In addition, the TGI in the assay on NCI-H522 lung, with OVCAR-3 ovarian, with OVCAR-4 ovarian, with OVCAR-5 ovarian, with OVCAR-8 ovarian and in the assay with RXF 393 renal was greater than 100 µM throughout. Besides, the TGI with SK-MEL-2 melanoma, in the assay on SK-OV-3 ovarian, with SN12C renal and in the assay on SNB-75 CNS was greater than 100 µM each time.

Take `COC1/C=C/C(C)C(O)CC(O)/C=C/C(C)C(C(C)C(OC)C(C)CCC(=O)C(C)C(C/C=C/N(C)C=O)OC)OC(=O)/C=C/C=C(\C)CC(OC)CC2=CC(=O)O[C@@H](C(C)C(OC)C1)[C@H]2O` (some centres not stated): the TGI in the assay with ACHN renal came to 0.13 µM; in the assay with DU-145 prostate, 4.09 µM; in the assay on HOP-62 NSCLC it was 0.0257 µM; in the assay on HOP-92 NSCLC it was 0.0106 µM; with IGROV1 ovarian it was 0.0689 µM; in the assay on MCF7 breast, 0.0909 µM. For the same compound, the TGI came to 0.162 µM with NCI-H460 lung; 0.093 µM in the assay with NCI-H522 lung; 0.0106 µM in the assay with OVCAR-3 ovarian; 1.54 µM in the assay with OVCAR-4 ovarian; 0.228 µM in the assay on OVCAR-5 ovarian; 0.475 µM in the assay on OVCAR-8 ovarian. The TGI worked out at 0.0112 µM in the assay with RXF 393 renal; 0.137 µM with SF-268 CNS; 0.0172 µM in the assay on SF-539 CNS; 0.108 µM in the assay with SK-OV-3 ovarian; 1.78 µM in the assay on SN12C renal; 0.00586 µM in the assay with SNB-75 CNS. The TGI in the assay on UACC-257 melanoma was 0.169 µM.

For the origin of these results see PubChem BioAssay (NCI).
